Ends that are not written are not given here.
Columns and labels:
[1] = system: Salmonella enterica serovar typhimurium C77-31; conditions: serovar typhimurium C77-31, 24 h
Method: (§1) The antimicrobial activity of each peptide was determined against the following bacteria strains: Escherichia coli ATCC 25922, Escherichia coli UB1005, Salmonella enterica serovar typhimurium C77-31, Staphylococcus aureus ATCC 29213, Staphylococcus aureus ATCC 25923 and Staphylococcus epidermidis ATCC 12228. The minimal inhibitory concentrations (MICs) of the peptides were measured according to a modified version of the National Committee for Clinical Laboratory Standards (NCCLS) broth microdilution method as described previously. Briefly, mid-logarithmic phase bacteria were cultured in Mueller-Hinton (MH) broth and then diluted to 1×10^5 CFU/ml. Equal volumes (50 µl) of microorganism solution and 2-fold serially diluted different concentrations (0.25–128 µM) peptides in 0.01% (v/v) acetic acid and 0.2% (w/v) bovine serum albumin (BSA, Sigma) were added to each well of the sterile 96-well plate. After incubation for 24 h at 37°C, MICs were determined as the lowest concentration of peptides that prevented visible turbidity by visual inspection. The tests were performed in triplicate. Cultures without peptides and uninoculated MH broth were employed as positive and negative controls, respectively. In addition, the salt stability of the peptides was tested in the MIC assay mentioned above.

[2] = system: Staphylococcus epidermidis ATCC 12228; conditions: ATCC 12228, 24 h
Method: as §1

[3] = system: Staphylococcus aureus ATCC 29213; conditions: ATCC 29213, 24 h
Method: as §1

Escherichia coli UB1005 = conditions: UB1005, 24 h
Method: as §1

[4] = system: Staphylococcus aureus ATCC 25923; conditions: ATCC 25923, 24 h
Method: as §1

[5] = system: gram-negative and gram-positive bacteria (six strains tested); conditions: for GM, geometric mean of the MICs: all tested strains, >128 µM counted as 256 µM
Method: as §1

[6] = system: Escherichia coli ATCC 25922; conditions: ATCC 25922, 24 h
Method: as §1

human erythrocytes = test: Hemolytic activity; assay type: cell-based; conditions: for Hemolytic activity (in words): 1 h at 37°C in PBS, absorbance at 570 nm, up to 128 µM, three independent experiments; for Concentration causing 50% hemolysis: 1 h at 37°C, highest concentration 128 µM
Method: The hemolytic activity of the peptides was measured as the amount of hemoglobin released by the lysis of human erythrocytes. Briefly, 1 ml of fresh human blood cells (hRBCs) obtained from a healthy donor (Na Dong, Harbin, China) in a polycarbonate tube containing heparin was centrifuged at 1,000×g for 5 min at 4°C [16]. The experimental protocol was reviewed and approved by the ethics committee of the Northeast Agricultural University Hospital. The erythrocytes obtained were washed three times with phosphate-buffered saline (PBS) solution (pH 7.2) and resuspended in PBS. A 50 µl volume of the erythrocyte solution was incubated with 50 µl of various peptides dissolved in PBS for 1 h at 37°C. Intact erythrocytes were pelleted by centrifugation at 1,000×g for 5 min at 4°C, and the supernatant was transferred to a new 96-well plate. The release of hemoglobin was monitored by measuring the absorbance at 570 nm. As negative and positive controls, hRBCs in PBS without the peptide and 0.1% Triton X-100 were employed, respectively.

[7] = strain not given; for MIC, Without treatment: no salt added

GRFRRLRKKTRK-NH2 [GK12]
MIC S. typhimurium C77-31 [1]: >128 µM
MIC S. epidermidis ATCC 12228 [2]: >128 µM
MIC S. aureus ATCC 29213 [3]: >128 µM
MIC E. coli UB 1005 (Escherichia coli UB1005): 128 µM
MIC S. aureus ATCC 25923 [4]: >128 µM
GM, geometric mean of the MICs [5]: 203.19 µM
MIC E. coli ATCC25922 [6]: 128 µM
Hemolytic activity (in words) (human erythrocytes): no hemolytic activity

GRFRRLRKKTRKRLKKIGKV
Antimicrobial activity (in words) ([5]; tested microorganisms, up to 128 µM): extremely low antimicrobial activity

GRFRRLRKKTRKRLKKIGKVLKAI-NH2 [GI24-W23A]
MIC S. typhimurium C77-31 [1]: >128 µM
MIC S. epidermidis ATCC 12228 [2]: 128 µM
MIC S. aureus ATCC 29213 [3]: 128 µM
MIC E. coli UB 1005 (Escherichia coli UB1005): 16 µM
MIC S. aureus ATCC 25923 [4]: 128 µM
GM, geometric mean of the MICs [5]: 71.84 µM
MIC E. coli ATCC25922 [6]: 16 µM

GRFRRLRKKTRKRLKKIGKVLKKI-NH2 [GI24-W23K]
MIC S. typhimurium C77-31 [1]: >128 µM
MIC S. epidermidis ATCC 12228 [2]: 32 µM
MIC S. aureus ATCC 29213 [3]: 32 µM
MIC E. coli UB 1005 (Escherichia coli UB1005): 16 µM
MIC S. aureus ATCC 25923 [4]: 64 µM
GM, geometric mean of the MICs [5]: 45.25 µM
MIC E. coli ATCC25922 [6]: 32 µM
Hemolytic activity (in words) (human erythrocytes): no hemolytic activity

GRFRRLRKKTRKRLKKIGKVLKLI-NH2 [GI24-W23L]
MIC S. typhimurium C77-31 [1]: 2 µM
MIC S. epidermidis ATCC 12228 [2]: 4 µM
MIC S. aureus ATCC 29213 [3]: 4 µM
MIC E. coli UB 1005 (Escherichia coli UB1005): 2 µM
MIC S. aureus ATCC 25923 [4]: 4 µM
GM, geometric mean of the MICs [5]: 2.52 µM
MIC E. coli ATCC25922 [6]: 1 µM
Hemolytic activity (in words) (human erythrocytes): slightly hemolytic activity

GRFRRLRKKTRKRLKKIGKVLKWI-NH2 [GI24]
MIC S. typhimurium C77-31 [1]: 1 µM
MIC S. epidermidis ATCC 12228 [2]: 2 µM
MIC S. aureus ATCC 29213 [3]: 2 µM
MIC E. coli UB 1005 (Escherichia coli UB1005): 2 µM
MIC S. aureus ATCC 25923 [4]: 4 µM
GM, geometric mean of the MICs [5]: 1.78 µM
MIC E. coli ATCC25922 [6]: 1 µM
Hemolytic activity (in words) (human erythrocytes): slightly hemolytic activity
Concentration causing 50% hemolysis (human erythrocytes): > 128 µM
MIC, CaCl2 (1 mM) [7]: 1 µM
MIC, MgCl2 (1 mM) [7]: 2 µM
MIC, NaCl (50 mM) [7]: 1 µM
MIC, NaCl (100 mM) [7]: 2 µM
MIC, NaCl (150 mM) [7]: 2 µM
MIC, Without treatment [7]: 1 µM

GRFRRLRKKTRKRLKKIGKVLKWIPPIVGSIPLGCG-NH2 [PMAP-36, porcine myeloid antimicrobial peptide-36]
MIC S. typhimurium C77-31 [1]: 1 µM
MIC S. epidermidis ATCC 12228 [2]: 2 µM
MIC S. aureus ATCC 29213 [3]: 2 µM
MIC E. coli UB 1005 (Escherichia coli UB1005): 2 µM
MIC S. aureus ATCC 25923 [4]: 2 µM
GM, geometric mean of the MICs [5]: 1.59 µM
MIC E. coli ATCC25922 [6]: 1 µM
Hemolytic activity (in words) (human erythrocytes): slightly hemolytic activity
MIC, CaCl2 (1 mM) [7]: 1 µM
MIC, MgCl2 (1 mM) [7]: 2 µM
MIC, NaCl (50 mM) [7]: 1 µM
MIC, NaCl (100 mM) [7]: 1 µM
MIC, NaCl (150 mM) [7]: 2 µM
MIC, Without treatment [7]: 1 µM

GVFRRLRKVTRKVLKKIGKVLKWI-NH2 [GI24-V3]
MIC S. typhimurium C77-31 [1]: 4 µM
MIC S. epidermidis ATCC 12228 [2]: 2 µM
MIC S. aureus ATCC 29213 [3]: 4 µM
MIC E. coli UB 1005 (Escherichia coli UB1005): 4 µM
MIC S. aureus ATCC 25923 [4]: 4 µM
GM, geometric mean of the MICs [5]: 3.56 µM
MIC E. coli ATCC25922 [6]: 4 µM
Hemolytic activity (in words) (human erythrocytes): relatively high hemolytic activity
Concentration causing 50% hemolysis (human erythrocytes): 128 µM

GVFRVLRKVTRVVLKVIGKVLKWI-NH2 [GI24-V6]
MIC S. typhimurium C77-31 [1]: 4 µM
MIC S. epidermidis ATCC 12228 [2]: 2 µM
MIC S. aureus ATCC 29213 [3]: 2 µM
MIC E. coli UB 1005 (Escherichia coli UB1005): 4 µM
MIC S. aureus ATCC 25923 [4]: 2 µM
GM, geometric mean of the MICs [5]: 2.52 µM
MIC E. coli ATCC25922 [6]: 2 µM
Hemolytic activity (in words) (human erythrocytes): relatively high hemolytic activity
Concentration causing 50% hemolysis (human erythrocytes): 8 µM

PPIVGSIPLGCG-NH2 [PG12]
MIC S. typhimurium C77-31 [1]: >128 µM
MIC S. epidermidis ATCC 12228 [2]: >128 µM
MIC S. aureus ATCC 29213 [3]: >128 µM
MIC E. coli UB 1005 (Escherichia coli UB1005): >128 µM
MIC S. aureus ATCC 25923 [4]: >128 µM
GM, geometric mean of the MICs [5]: 256 µM
MIC E. coli ATCC25922 [6]: >128 µM
Hemolytic activity (in words) (human erythrocytes): no hemolytic activity

RLKKIGKVLKWI-NH2 [RI12]
MIC S. typhimurium C77-31 [1]: 8 µM
MIC S. epidermidis ATCC 12228 [2]: 64 µM
MIC S. aureus ATCC 29213 [3]: 64 µM
MIC E. coli UB 1005 (Escherichia coli UB1005): 16 µM
MIC S. aureus ATCC 25923 [4]: 128 µM
GM, geometric mean of the MICs [5]: 28.51 µM
MIC E. coli ATCC25922 [6]: 8 µM
Hemolytic activity (in words) (human erythrocytes): no hemolytic activity

— paper PMC3897731, “Antimicrobial Properties and Membrane-Active Mechanism of a Potential α-Helical Antimicrobial Derived from Cathelicidin PMAP-36” (PLoS ONE, 2014)
